The source of these data is ChEMBL document CHEMBL4699406, “Reversing binding sensitivity to A147T translocator protein” (RSC Med Chem, 2020).

The species entered for one test is Homo sapiens. The test is described as follows: Selectivity index, ratio of Ki for human TSPO A147T mutant expressed in HEK293 cell membranes to Ki for human TSPO expressed in HEK293 cell membranes. It counts as cell-based.
A further test addresses Translocator protein (Homo sapiens, UniProt P30536). Briefly: Displacement of [3H]PK11195 from wild-type human TSPO expressed in HEK293 cell membranes after 90 mins by scintillation counting method. On the set-up: species or system Cell membrane. For orientation: In a radioligand displacement assay an active substance lowers the binding of a labelled ligand.

Activity calls are given as the source filed them. The rule behind the calls is not given here.

Sequence of Translocator protein (P30536 whole entry): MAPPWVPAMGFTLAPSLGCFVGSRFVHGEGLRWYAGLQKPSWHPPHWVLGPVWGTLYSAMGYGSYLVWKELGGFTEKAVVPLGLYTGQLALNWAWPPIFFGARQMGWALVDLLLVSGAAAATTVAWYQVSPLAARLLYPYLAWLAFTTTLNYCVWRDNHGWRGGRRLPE

Turning to `CCN(CC)C(=O)CN(Cc1ccccc1)c1cc(C)cc(C)c1`, the Ratio Ki in the test filed under Homo sapiens worked out at 4.2. In addition, on Translocator protein, the affinity corresponds to a Ki of 1010 nM.

Consider `CCN(CC)C(=O)CN(Cc1ccc(OCCF)cc1)c1cc(C)cc(C)c1`, for which, in the test filed under Homo sapiens, the Ratio Ki was greater than 7.7. On Translocator protein, the Ki amounted to 1290 nM.

As for `CCN(CC)C(=O)CN(Cc1ccc(OCc2ccccc2)cc1)c1cc(C)cc(C)c1`, the Ratio Ki in the test listed under Homo sapiens was found to be 4.2. Also, on Translocator protein, the Ki was 433 nM.

Take `CCN(CC)C(=O)c1nc2ccccc2n1Cc1ccccc1`: in the test filed under Homo sapiens, the “Ratio Ki” value is “inactive”. For the same compound, the Ki at Translocator protein was greater than 10000 nM.

Take `CC(=O)N(Cc1ccc(OC(C)C)cc1)c1cc(C)cc(C)c1`: the Ratio Ki in the test listed under Homo sapiens was found to be 3.8. Besides, the inhibition constant Ki on Translocator protein worked out at 823 nM.

For the compound `CC(=O)N(Cc1ccc(OCc2ccccc2)cc1)c1cc(C)cc(C)c1`, in the test listed under Homo sapiens, the Ratio Ki worked out at 2. Moreover, the Ki on Translocator protein is 377 nM.

On to `C#CCN(C)C(=O)c1cc2cc(NS(C)(=O)=O)ccc2n1Cc1ccc(OC)cc1`, for which the Ratio Ki in the test filed under Homo sapiens was 0.5. Also, the affinity at Translocator protein, expressed as Ki, was 1500 nM.

In the case of `C#CCN(C)C(=O)c1nc2ccccc2n1Cc1ccc(Cl)cc1`, the “Ratio Ki” value in the test listed under Homo sapiens is “inactive”. The Ki on Translocator protein was greater than 10000 nM.

As for `COc1ccc(CN(C(C)=O)c2cc(C)cc(C)c2)cc1`, in the test filed under Homo sapiens, the Ratio Ki turned out to be 5.6. For the same compound, at Translocator protein, affinity was put at a Ki of 500 nM.

As to `CCN(CC)C(=O)c1nc2ccccc2n1Cc1ccc(Cl)cc1`, the Ratio Ki in the test filed under Homo sapiens was less than 0.3. This compound yielded a Ki on Translocator protein greater than 10000 nM.

On to `C#CCN(C)C(=O)c1nc2ccccc2n1Cc1ccc(OC)cc1`, for which, in the test filed under Homo sapiens, the Ratio Ki was greater than 3. Further, the Ki on Translocator protein was determined as 3280 nM.

In the case of `C#CCN(C)C(=O)c1cc2cc(C)ccc2n1Cc1ccc(OC)nc1`, in the test listed under Homo sapiens, the Ratio Ki came to 0.1. This compound also came in with a Ki on Translocator protein greater than 10000 nM.

As to `CCN(CC)C(=O)c1nc2ccccc2n1Cc1ccc(OC)nc1`, the “Ratio Ki” value in the test filed under Homo sapiens was “inactive”. For the same compound, the Ki at Translocator protein is greater than 10000 nM.

`CC(=O)N(Cc1ccc(OCCF)cc1)c1cc(C)cc(C)c1`: the Ratio Ki in the test listed under Homo sapiens is 14.3. Besides, the Ki at Translocator protein is 275 nM.

As for `CCN(CC)C(=O)Cn1c(-c2ccc(OC)cc2)nc2c(C)cc(C)cc21`, in the test listed under Homo sapiens, the Ratio Ki was determined as 4.2. This compound also came in with an inhibition constant Ki at Translocator protein of 208 nM.

In the case of `CCN(CC)C(=O)c1cc2cc(C)ccc2n1Cc1ccc(OCc2ccccc2)cc1`, the “Ratio Ki” value in the test listed under Homo sapiens was “inactive”. At Translocator protein, this compound gave a Ki greater than 10000 nM.

Turning to `CCN(CC)C(=O)c1nc2ccccc2n1Cc1ccc(OC)cc1`, the Ratio Ki in the test filed under Homo sapiens was greater than 3.3. This compound also came in with a Ki at Translocator protein of 3060 nM.

With `CCN(CC)C(=O)CN(Cc1ccc(OC(C)C)cc1)c1cc(C)cc(C)c1`, the Ratio Ki in the test listed under Homo sapiens was greater than 4.5. This compound returned an inhibitory constant (Ki) at Translocator protein of 2240 nM.

In the case of `CN(Cc1ccccc1)C(=O)c1nc2ccccc2n1Cc1ccc(Cl)cc1`, the “Ratio Ki” value in the test filed under Homo sapiens was “inactive”. Also, on Translocator protein, the Ki was greater than 10000 nM.

For the compound `C#CCN(C)C(=O)c1cc2cc(NC(C)=O)ccc2n1Cc1ccc(OC)cc1`, in the test listed under Homo sapiens, the Ratio Ki worked out at 1.4. At Translocator protein, this compound came in with a Ki of 2070 nM.

Take `CCN(CC)C(=O)CN(Cc1ccc(OC)cc1)c1cc(C)cc(C)c1`: the Ratio Ki in the test filed under Homo sapiens is 3.5. Further, at Translocator protein, the Ki was 1200 nM.

Turning to `CC(=O)N(Cc1ccccc1)c1cc(C)cc(C)c1`, the Ratio Ki in the test filed under Homo sapiens amounted to 4.6. Further, the Ki on Translocator protein is 275 nM.

Turning to `CCN(CC)C(=O)Cn1c(-c2ccc(OC)cc2)cc2c(C)cc(C)cc21`, in the test filed under Homo sapiens, the Ratio Ki came out at 5.7. The compound further returned a Ki on Translocator protein of 114 nM.

With `CCN(CC)C(=O)c1cc2cc(C)ccc2n1Cc1cn[nH]n1`, in the test filed under Homo sapiens, the “Ratio Ki” value was “inactive”. The Ki on Translocator protein is greater than 10000 nM.

Consider `CCN(CC)C(=O)c1cc2cc(C)ccc2n1Cc1ccc(O)cc1`, for which the “Ratio Ki” value in the test filed under Homo sapiens is “inactive”. This compound also returned a Ki on Translocator protein greater than 10000 nM.

The term Ki denotes the equilibrium dissociation constant of an inhibitor or competing ligand from its target.
